Assay: xn = mol fraction of the nth substance listed
Details: 101 kPa, Liquid; for viscosity: Capillary tube (Ostwald / Ubbelohde) method; for speed of sound: Frequency=2 MHz, Linear variable-path acoustic interferometer; for mass density: Pycnometric method

CCCCCC(C)O (stereo not given) [2-heptanol] + Cc1ccccc1
Details	mass density, 298.15 K [kg/m3]	mass density, 308.15 K [kg/m3]	speed of sound, 298.15 K [m/s]	speed of sound, 308.15 K [m/s]	viscosity, 298.15 K [mPa·s]	viscosity, 308.15 K [mPa·s]
x2 = 0	813.74	804.88	1314	1274	5.088	3.683
x2 = 0.0514	815.49	806.49	1309	1267	4.335	3.171
x2 = 0.1014	817.27	808.2	1303	1261	3.878	2.776
x2 = 0.1469	818.88	809.75	1298	1256	3.392	2.459
x2 = 0.2008	820.83	811.62	1293	1251	2.918	2.155
x2 = 0.2519	822.7	813.37	1288	1246	2.526	1.875
x2 = 0.3007	824.54	815.12	1283	1243	2.195	1.665
x2 = 0.348	826.33	816.85	1279	1238	1.9	1.485
x2 = 0.4006	828.45	818.86	1276	1235	1.622	1.332
x2 = 0.4526	830.61	820.97	1272	1232	1.396	1.199
x2 = 0.5002	832.62	822.92	1271	1230	1.24	1.078
x2 = 0.5501	834.9	825.13	1269	1229	1.064	0.992
x2 = 0.6011	837.36	827.5	1268	1228	0.931	0.904
x2 = 0.6574	840.16	830.22	1268	1229	0.853	0.818
x2 = 0.7011	842.5	832.53	1269	1230	0.778	0.756
x2 = 0.756	845.59	835.62	1273	1234	0.741	0.679
x2 = 0.8	848.22	838.25	1276	1238	0.691	0.641
x2 = 0.854	851.69	841.71	1283	1243	0.65	0.57
x2 = 0.9009	854.88	844.95	1289	1250	0.611	0.518
x2 = 0.9475	858.12	848.5	1296	1258	0.589	0.501

CCCCC(C)O (stereo not given) [2-hexanol] + Cc1ccccc1
Details	mass density, 298.15 K [kg/m3]	mass density, 308.15 K [kg/m3]	speed of sound, 298.15 K [m/s]	speed of sound, 308.15 K [m/s]	viscosity, 298.15 K [mPa·s]	viscosity, 308.15 K [mPa·s]
x2 = 0	810.84	801.75	1290	1255	4.105	2.92
x2 = 0.0497	812.91	803.69	1286	1251	3.548	2.566
x2 = 0.1007	815.08	805.85	1284	1245	3.087	2.273
x2 = 0.1588	817.53	808.16	1281	1243	2.741	1.935
x2 = 0.1993	819.29	809.89	1278	1240	2.427	1.703
x2 = 0.252	821.5	812.03	1274	1237	2.11	1.519
x2 = 0.2999	823.59	813.99	1270	1235	1.849	1.303
x2 = 0.3495	825.77	816.07	1269	1232	1.619	1.153
x2 = 0.4016	828.16	818.34	1267	1230	1.439	1.046
x2 = 0.4468	830.21	820.35	1265	1229	1.318	0.962
x2 = 0.5012	832.7	822.9	1265	1228	1.165	0.85
x2 = 0.5502	835.1	825.27	1264	1228	1.061	0.794
x2 = 0.6003	837.61	827.79	1263	1228	0.953	0.766
x2 = 0.6492	840.23	830.36	1267	1229	0.92	0.689
x2 = 0.7008	843.05	833.28	1268	1230	0.866	0.671
x2 = 0.7476	845.75	835.92	1271	1232	0.84	0.611
x2 = 0.8006	848.93	839.1	1276	1237	0.762	0.579
x2 = 0.8502	852.09	842.25	1280	1242	0.686	0.561
x2 = 0.8945	855.01	845.2	1286	1249	0.649	0.531
x2 = 0.9407	858.09	848.38	1294	1257	0.638	0.527

CCCCCCC(C)O (stereo not given) [2-octanol] + Cc1ccccc1
Details	mass density, 298.15 K [kg/m3]	mass density, 308.15 K [kg/m3]	speed of sound, 298.15 K [m/s]	speed of sound, 308.15 K [m/s]	viscosity, 298.15 K [mPa·s]	viscosity, 308.15 K [mPa·s]
x2 = 0	817.08	809.89	1328	1292	6.429	4.365
x2 = 0.0494	818.49	811.13	1323	1285	5.547	3.837
x2 = 0.0991	819.89	812.4	1317	1280	4.813	3.373
x2 = 0.1497	821.39	813.76	1313	1274	4.186	2.975
x2 = 0.1999	822.91	815.11	1306	1268	3.559	2.563
x2 = 0.2511	824.47	816.48	1299	1261	3.069	2.264
x2 = 0.2996	826.03	817.85	1294	1257	2.652	1.986
x2 = 0.354	827.83	819.46	1289	1250	2.239	1.685
x2 = 0.3998	829.43	820.91	1285	1247	1.966	1.488
x2 = 0.4469	831.12	822.49	1279	1243	1.69	1.276
x2 = 0.5	833.15	824.35	1277	1239	1.462	1.121
x2 = 0.5509	835.22	826.29	1273	1235	1.263	1.004
x2 = 0.5995	837.33	828.32	1271	1234	1.104	0.912
x2 = 0.6486	839.67	830.43	1270	1232	0.947	0.836
x2 = 0.701	842.33	832.94	1270	1233	0.88	0.77
x2 = 0.7477	844.88	835.37	1271	1234	0.791	0.707
x2 = 0.7989	847.89	838.32	1273	1237	0.716	0.649
x2 = 0.8513	851.18	841.6	1278	1241	0.628	0.569
x2 = 0.9	854.46	844.93	1286	1247	0.636	0.573
x2 = 0.9511	858.12	848.66	1294	1255	0.574	0.506
